Target: T1, CDK7/Cyclin H/MAT-1 complex (Homo sapiens, UniProt P50613)
T1 construct: Human CDK7 (amino acids 1-346); His6 (N); TEV protease cleavage site (N); made in house; host or cells: baculovirus-SF9 insect cells
Experiment: Absorbance kinetic assay (20 nM CDK7/Cyclin H/MAT-1 complex)
Assay type: biochemical
Settings: read-out: CDK7 (20 nM) pIC50 (converted)
Method in brief: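 Trimeric complex (His6-TEV CDK7 1-346, MAT1 1-309, cyclin H 1-323) from Sf9 cells, at 20 nM, phosphorylating RNA Pol II-derived CDK7/9-tide; ADP coupled via PK/LDH to NADH depletion read at 340 nm every 2 min for 8 h. Steady-state slopes gave % inhibition; IC50 from 11-point Hill fit.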

T1 sequence (P50613 whole entry, the tested form may be a part): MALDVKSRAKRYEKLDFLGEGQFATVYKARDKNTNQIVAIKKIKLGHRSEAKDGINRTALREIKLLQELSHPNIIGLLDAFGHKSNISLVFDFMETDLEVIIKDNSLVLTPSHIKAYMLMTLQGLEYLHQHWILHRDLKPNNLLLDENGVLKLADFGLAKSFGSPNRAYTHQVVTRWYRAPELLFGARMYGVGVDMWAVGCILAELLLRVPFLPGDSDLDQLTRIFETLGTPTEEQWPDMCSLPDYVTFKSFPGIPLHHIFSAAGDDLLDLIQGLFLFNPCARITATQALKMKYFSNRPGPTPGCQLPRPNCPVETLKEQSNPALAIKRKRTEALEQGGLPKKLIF
T1 sequence (P51946 whole entry partner, the tested form may be a part): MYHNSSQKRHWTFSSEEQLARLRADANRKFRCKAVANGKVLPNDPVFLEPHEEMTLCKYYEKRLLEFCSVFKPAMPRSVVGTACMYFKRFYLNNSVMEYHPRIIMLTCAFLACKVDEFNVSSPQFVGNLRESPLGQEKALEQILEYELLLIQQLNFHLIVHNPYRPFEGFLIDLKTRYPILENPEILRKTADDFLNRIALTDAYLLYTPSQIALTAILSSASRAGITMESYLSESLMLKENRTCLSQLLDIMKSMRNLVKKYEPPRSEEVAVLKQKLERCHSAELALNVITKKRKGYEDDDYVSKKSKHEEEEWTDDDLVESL
T1 sequence (P51948 whole entry partner, the tested form may be a part): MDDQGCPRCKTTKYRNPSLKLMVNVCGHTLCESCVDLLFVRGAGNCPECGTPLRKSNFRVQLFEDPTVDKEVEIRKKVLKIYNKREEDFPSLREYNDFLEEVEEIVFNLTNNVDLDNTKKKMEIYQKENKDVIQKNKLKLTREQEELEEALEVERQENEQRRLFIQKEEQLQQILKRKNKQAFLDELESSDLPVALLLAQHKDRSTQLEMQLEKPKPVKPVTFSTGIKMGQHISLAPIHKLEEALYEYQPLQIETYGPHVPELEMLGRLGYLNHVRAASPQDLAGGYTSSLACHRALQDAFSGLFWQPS

Row | SMILES | IC50
1 | C[C@@H]1CN(C(=O)[C@H]2CCN(C)C[C@@H]2c2ccccc2)Cc2nc(NC3CCOCC3)ncc21 (relative stereo) [Compound 188] | < 9.77 nM
2 | C[C@@H]1Cc2cnc(N[C@H]3CCCNC3)nc2CN1C(=O)[C@H]1CCN(C)C[C@@H]1C(F)(F)F (relative stereo) [Compound 144] | < 9.77 nM
3 | C[C@@H]1Cc2cnc(NCc3ccn(C)n3)nc2CN1C(=O)[C@H]1CCN(C)C[C@@H]1C(F)(F)F (relative stereo) [Compound 143] | < 9.77 nM
4 | C[C@@H]1Cc2cnc(NCc3ccn(C)n3)nc2CN1C(=O)[C@H]1CCN(C)C[C@@H]1c1ccccc1C(F)F (relative stereo) [Compound 139] | 91.2 nM
5 | C[C@H]1CN(C(=O)[C@H]2CCN(C)C[C@@H]2c2ccccc2)[C@@H](C)c2nc(NC3CCOCC3)ncc21 (relative stereo) [Compound 181] | 126 nM
6 | C[C@@H]1Cc2cnc(NCc3ccccc3)nc2CN1C(=O)[C@@H]1CCN(C)C[C@H]1C(F)(F)F (relative stereo) [Compound 141] | 39.8 nM
7 | Cc1cccc([C@H]2CN(C)CC[C@@H]2C(=O)N2Cc3nc(NC4CCOCC4)ncc3C[C@H]2C)c1 (relative stereo) [Compound 134] | < 9.77 nM
8 | C[C@@H]1Cc2cnc(NC3CCOCC3)nc2CN1C(=O)[C@H]1CCN(C)C[C@@H]1c1ccc(Cl)cc1 (relative stereo) [Compound 132] | 9.77 nM
9 | C[C@@H]1Cc2cnc(NC3CCOCC3)nc2CN1C(=O)[C@H]1CCN(C)C[C@@H]1c1cccc(F)c1 (relative stereo) [Compound 133] | 12.3 nM
10 | CN1CC[C@H](C(=O)N2Cc3nc(NC4CCOCC4)ncc3CC2(C)C)[C@@H](c2ccccc2)C1 (relative stereo) [Compound 189] | 17.8 nM
11 | CC1CN(C(=O)[C@H]2CCN(C)C[C@@H]2c2ccccc2)Cc2nc(Nc3cnn(C)c3)ncc21 (mixture of isomers) [Compound 194] | 17.8 nM
12 | C[C@@H]1Cc2cnc(NC3CCOCC3)nc2[C@H](C)N1C(=O)[C@H]1CCN(C)C[C@@H]1c1ccccc1 (single isomer, unassigned) [Compound 195b] | < 9.77 nM
13 | C[C@@H]1CN(C)CC[C@H]1C(=O)N1Cc2nc(NC3CCOCC3)ncc2C[C@H]1C (relative stereo) [Compound 145] | 67.6 nM
14 | CO[C@H]1CC[C@H](Nc2ncc3c(n2)CN(C(=O)[C@@H]2CCN(C)C[C@H]2c2ccnc(C)c2)[C@H](C)C3)CC1 (relative stereo) [Compound 105] | < 9.77 nM
15 | C[C@@H]1Cc2cnc(NCc3ccn(C)n3)nc2CN1C(=O)[C@H]1CCN(C)C[C@@H]1c1cccc(C(F)(F)F)c1 (relative stereo) [Compound 129] | 11.7 nM
16 | C[C@@H]1Cc2cnc(N[C@H]3CCOC(C)(C)C3)nc2CN1C(=O)[C@H]1CCN(C)C[C@@H]1c1ccccc1 (relative stereo) [Compound 39] | < 20 nM
17 | Cc1cc([C@@H]2CN(C)CC[C@H]2C(=O)N2Cc3nc(NC4CCOCC4)ncc3C[C@H]2C)ccn1 (relative stereo) [Compound 102] | 105 nM
18 | C[C@@H]1Cc2cnc(N[C@@H]3CCC(=O)N(C)C3)nc2CN1C(=O)[C@H]1CCN(C)C[C@@H]1c1ccccc1 (relative stereo) [Compound 6] | < 9.77 nM
19 | Cc1cccc([C@@H]2CN(C)CC[C@H]2C(=O)N2Cc3nc(NCc4ccn(C)n4)ncc3C[C@H]2C)c1 (relative stereo) [Compound 136] | 11.5 nM
20 | [2H]C([2H])([2H])N1CC[C@@H](C(=O)N2Cc3nc(NCc4ccn(C)n4)ncc3C[C@H]2C)[C@H](c2cccc(C)c2)C1 (single isomer, unassigned) [Compound 148] | < 9.77 nM
21 | [2H]C([2H])([2H])N1CC[C@H](C(=O)N2Cc3nc(NCc4ccccc4)ncc3C[C@H]2C)[C@@H](c2ccccc2)C1 (single isomer, unassigned) [Compound 154] | < 9.77 nM
22 | C[C@@H]1Cc2cnc(NC3CCOCC3)nc2CN1C(=O)[C@H]1CCN(C)C[C@@H]1C (relative stereo) [Compound 146] | 11.5 nM

Reference: patent US12679839B2, “Cyclin-dependent kinase 7 (CDK7) non-covalent inhibitors” (JANSSEN PHARMACEUTICA NV, priority 2020, dated 2026)
